The record followed here is US20080280952A1 (priority 2004, published 2008).

pEC50: −log10 of the molar value.

The target in the experiment is T1, human cannabinoid CB2 receptor (Homo sapiens, UniProt P34972).
T1 construct: expressed in transfected cells; host or cells: Saccharomyces cerevisiae strain MMY23 (cassette integrated at the ura3 locus, GPD promoter)
The experiment is described as follows: Cannabinoid CB2 receptor agonist activity, yeast reporter assay. Type of experiment: cell-based. Conditions: for Emax: read-out: efficacy (Emax) at the cloned human cannabinoid CB2 receptor. As to the method: The cannabinoid CB2 receptor agonist activity of the compounds of formula (I) was determined in accordance with the following experimental method.
Yeast (Saccharomyces cerevisiae) cells expressing the human cannabinoid CB2 receptor were generated by integration of an expression cassette into the ura3 chromosomal locus of yeast strain MMY23. This cassette consisted of DNA sequence encoding the human CB2 receptor flanked by the yeast GPD promoter to the 5′ end of CB2 and a yeast transcriptional terminator sequence to the 3′ end of CB2. MMY23 expresses a yeast/mammalian chimeric G-protein alpha subunit in which the C-terminal 5 amino acids of Gpa1 are replaced with the C-terminal 5 amino acids of human Gαi3 (as described in Brown et al. (2000), Yeast 16:11-22).
Agonists were prepared as 10 mM stocks in DMSO. […] Agonist solutions in DMSO (1% final assay volume) were transferred into black, clear bottom, microtitre plates from NUNC (96- or 384-well). Cells were suspended at a density of 0.2 OD600/ml in SC media lacking histidine, uracil, tryptophan, adenine and leucine and supplemented with 10 mM 3-aminotriazole, 0.1M sodium phosphate pH 7.0, and […] fluorescein di-β-D-glucopyranoside (FDGlu). […] Fluorescence was plotted against compound concentration and iteratively curve fitted using a four parameter fit to generate a concentration effect value. Efficacy (Emax) was calculated from the equation
Equieffective molar ratio (EMR) values were calculated from the equation
(A reporter such as luciferase makes a cellular process visible.)

T1 sequence (P34972 whole entry): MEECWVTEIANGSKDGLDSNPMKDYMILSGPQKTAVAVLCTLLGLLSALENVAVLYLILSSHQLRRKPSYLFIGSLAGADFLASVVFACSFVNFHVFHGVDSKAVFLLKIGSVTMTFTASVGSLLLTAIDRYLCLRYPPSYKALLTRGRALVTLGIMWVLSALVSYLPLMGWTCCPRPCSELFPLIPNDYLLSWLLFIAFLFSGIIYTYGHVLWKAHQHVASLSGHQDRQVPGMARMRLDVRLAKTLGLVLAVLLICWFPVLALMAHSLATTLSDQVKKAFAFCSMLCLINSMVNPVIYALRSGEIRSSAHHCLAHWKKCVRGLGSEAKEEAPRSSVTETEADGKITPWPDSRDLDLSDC

With `O=C(NCC1CCOCC1)c1cnc(Nc2ccc(F)c(F)c2)cc1C1CC1` [Example 113, 4-Cyclopropyl-6-(3,4-difluoro-phenylamino)-N-(tetrahydro-pyran-4-ylmethyl)-nicotinamide], the pEC50 was 6.00 to 6.52 and the Emax was more than 50%.

In the case of `O=C(NCC1CCCC1)c1cnc(Nc2ccc(F)cc2F)cc1C1CC1` [Example 99, N-Cyclopentylmethyl-4-cyclopropyl-6-(2,4-difluoro-phenylamino)-nicotinamide], the pEC50 was 6.00 to 6.52 and the Emax was more than 50%.

On to `Cc1ccc(Cl)cc1Nc1cc(C2CC2)c(C(=O)NCC2CCOCC2)cn1` [Example 105, 6-(5-Chloro-2-methyl-phenylamino)-4-cyclopropyl-N-(tetrahydro-pyran-4-ylmethyl)-nicotinamide], for which the pEC50 was 6.00 to 6.52 and the Emax is more than 50%.

Take `O=C(NCC1CCOCC1)c1cnc(Nc2ccc(F)c(C(F)(F)F)c2)cc1C1CC1` [Example 93, 4-Cyclopropyl-6-(4-fluoro-3-trifluoromethyl-phenylamino)-N-(tetrahydro-pyran-4-ylmethyl)-nicotinamide]: the pEC50 is 6.00 to 6.52 and the Emax was more than 50%.

In the case of `O=C(NCC1CCOCC1)c1cnc(Nc2ccc(Cl)cc2F)cc1C1CCCC1` [Example 24, 6-(4-Chloro-2-fluoro-phenylamino)-4-cyclopentyl-N-(tetrahydro-pyran-4-ylmethyl)-nicotinamide], the pEC50 is 6.00 to 6.52 and the Emax was more than 50%.

Regarding `Cc1cccc(Nc2cc(C3CCCC3)c(C(=O)NCC3CCOCC3)cn2)c1` [Example 17, Methanesulphonic acid,compound with 4-cyclopentyl-N-(tetrahydro-pyran-4-ylmethyl)-6-m-tolylamino-nicotinamide], the pEC50 is 6.00 to 6.52 and the Emax was more than 50%.

Consider `O=C(NCC1CCCC1)c1cnc(Nc2cccc(Cl)c2Cl)cc1C1CC1` [Example 119, N-Cyclopentylmethyl-4-cyclopropyl-6-(2,3-dichloro-phenylamino)-nicotinamide], for which the pEC50 is 6.00 to 6.52 and the Emax was more than 50%.

With `O=C(NCC1CCCC1)c1cnc(Nc2cccc(F)c2F)cc1C1CC1` [Example 122, N-Cyclopentylmethyl-4-cyclopropyl-6-(2,3-difluoro-phenylamino)-nicotinamide], the pEC50 was 6.00 to 6.52 and the maximum response (Emax) was more than 50%.

As for `O=C(NCC1CCOCC1)c1ccc(Nc2cccc(OC(F)(F)F)c2)nc1C1CC1` [Example 127, 2-Cyclopropyl-N-(tetrahydro-pyran-4-ylmethyl)-6-(3-trifluoromethoxy-phenylamino)-nicotinamide], the pEC50 was 6.00 to 6.52 and the Emax is more than 50%.

`N#Cc1cccc(Nc2cc(C3CCCC3)c(C(=O)NCC3CCOCC3)cn2)c1` [Example 16, 6-(3-Cyano-phenylamino)-4-cyclopentyl-N-(tetrahydro-pyran-4-ylmethyl)-nicotinamide]: the pEC50 is 6.00 to 6.52 and the Emax was more than 50%.

On to `COc1cccc(Nc2cc(C3CC3)c(C(=O)NCC3CCC3)cn2)c1` [Example 115, N-Cyclobutylmethyl-4-cyclopropyl-6-(3-methoxy-phenylamino)-nicotinamide], for which the pEC50 is 6.00 to 6.52 and the Emax is more than 50%.

Regarding `O=C(NCC1CCOCC1)c1cnc(Nc2ccc(Br)c(Cl)c2)cc1C1CC1` [Example 91, 6-(4-Bromo-3-chloro-phenylamino)-4-cyclopropyl-N-(tetrahydro-pyran-4-ylmethyl)-nicotinamide], the pEC50 is 6.00 to 6.52 and the Emax was more than 50%.

For the molecule `Cc1cc(Cl)ccc1Nc1cc(C2CCCC2)c(C(=O)NCC2CCOCC2)cn1` [Example 23, 6-(4-Chloro-2-methyl-phenylamino)-4-cyclopentyl-N-(tetrahydro-pyran-4-ylmethyl)-nicotinamide], the pEC50 was 6.00 to 6.52 and the maximal response (Emax) was more than 50%.

For `O=C(NCC1CCOCC1)c1cnc(Nc2cc(Cl)ccc2F)cc1C1CC1` [Example 101, 6-(5-Chloro-2-fluoro-phenylamino)-4-cyclopropyl-N-(tetrahydro-pyran-4-ylmethyl)-nicotinamide], the pEC50 was 6.00 to 6.52 and the Emax was more than 50%.

As to `Cc1cccc(Nc2cc(C3CC3)c(C(=O)NCC3CCOCC3)cn2)c1C#N` [Example 109, 6-(2-Cyano-3-methyl-phenylamino)-4-cyclopropyl-N-(tetrahydro-pyran-4-ylmethyl)-nicotinamide], the negative-log EC50 (pEC50) was 6.00 to 6.52 and the Emax is more than 50%.

On to `O=C(NCC1CCOCC1)c1cnc(Nc2ccc(Br)c(F)c2)cc1C1CC1` [Example 97, 6-(4-Bromo-3-fluoro-phenylamino)-4-cyclopropyl-N-(tetrahydro-pyran-4-ylmethyl)-nicotinamide], for which the pEC50 was 6.00 to 6.52 and the Emax was more than 50%.

`O=C(NCC1CCOCC1)c1ccc(Nc2cccc(Cl)c2)nc1C1CC1` [Example 124, 6-(3-Chloro-phenylamino)-2-cyclopropyl-N-(tetrahydro-pyran-4-ylmethyl)-nicotinamide]: the negative logarithm of the EC50 (pEC50) is 6.00 to 6.52 and the maximal effect (Emax) is more than 50%.

For orientation: pEC50 means the EC50 on a negative log10 scale, so that one unit is a factor of ten. As usually defined, the Emax is the maximal effect, on the per cent scale that the assay sets.
